{
  "source": "patent US12653799B2",
  "about": "“Compositions and methods for treating Alzheimer's disease” (ELEANORE BENNETT CHARITABLE TRUST #2, priority 2021, dated 2026)",
  "key": {"[1]": {"test_system": "Akt Ser473 phosphorylation in rat primary cortical neurons", "test": "Non-amyloid insulin resistance model (palmitate/ceramide) in primary cortical neurons", "format": "cell-based", "conditions": "palmitate 300 μM; PS48 100 nM, 24 hrs; insulin 20 nM", "experimental": "FIG. 1B. Non-amyloid-based insulin resistance model. Partial restoration of insulin-induced Akt activation in rat primary cortical neurons exposed to the fatty acid neurotoxin palmitate (300 μM). […] . The same result was obtained in ceramide-treated (50 μM) primary neurons (not shown); *p<0.05). Representative western blot above, n=3 experiments.\nSH-SY5Y were left undifferentiated."}, "mTOR": {"test_system": "mTOR", "test": "Downstream mTOR phosphorylation", "format": "cell-based", "conditions": "PS48 1 or 10 μM, 2-4 hrs before doxycycline"}, "[2]": {"test_system": "Akt Ser473 and mTOR Ser2448 phosphorylation in rat primary cortical neurons", "test": "Over-activation test in insulin-stimulated primary cortical neurons", "conditions": "PS48 0.01 to 100 μM for 2 hrs or 24 hrs; 20 nM insulin"}, "Akt-1": {"biological_target": "T1, Akt-1 (Homo sapiens, UniProt P31749)", "T1 construct": "purchased Amsbio", "T1 sequence (P31749 whole entry)": "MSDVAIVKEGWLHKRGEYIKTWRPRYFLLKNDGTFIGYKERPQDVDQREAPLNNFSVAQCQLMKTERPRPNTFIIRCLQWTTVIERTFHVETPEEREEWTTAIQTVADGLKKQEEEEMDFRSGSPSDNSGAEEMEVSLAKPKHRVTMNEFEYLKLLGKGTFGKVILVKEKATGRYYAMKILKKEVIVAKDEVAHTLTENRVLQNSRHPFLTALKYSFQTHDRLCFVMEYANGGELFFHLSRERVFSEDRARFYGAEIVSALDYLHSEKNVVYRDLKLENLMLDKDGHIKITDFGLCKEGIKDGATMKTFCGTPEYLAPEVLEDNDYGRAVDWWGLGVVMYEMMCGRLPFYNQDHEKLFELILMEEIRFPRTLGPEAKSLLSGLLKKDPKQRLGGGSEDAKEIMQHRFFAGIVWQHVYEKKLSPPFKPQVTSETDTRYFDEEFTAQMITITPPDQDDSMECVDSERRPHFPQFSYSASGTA", "test": "Fluorescence polarization, FAM-Aβ42 binding to Akt-1 in solution", "conditions": "PS48 10, 20, and 100 μM; results not shown"}, "SH-SY5Y cells": {"test_system": "SH-SY5Y cells", "test": "Cell viability, MTT assay, Aβ42-expressing SH-SY5Y cells"}, "APP/PS-1 transgenic mice": {"test_system": "APP/PS-1 transgenic mice", "test": "Oral glucose tolerance test in APP/PS-1 transgenic mice", "format": "in vivo, mouse", "conditions": "TG mice on standard diet, approximately 15.5 months; p<0.05", "experimental": "At the end of phase 2 (active drug) trial, OGTT was administered to the standard diet animals. Animals were approximately 15.5 months at the time of the assay."}, "C2C12 myotubes": {"test_system": "C2C12 myotubes", "test": "Cell viability (cytoprotection) in C2C12 myotubes"}, "C57BL/6 mice [3]": {"test_system": "C57BL/6 mice", "test": "Safety of PS48 by oral gavage for 14 days", "format": "in vivo, mouse", "conditions": "oral gavage 1 or 50 mg/kg per day", "experimental": "(§1) Finally, a series of in vivo experiments was performed to assess safety of treatment with PS48. […] Similarly, when PS48 was given by oral gavage over 2 weeks, there were no signs of toxicity by gross observation, organ specific necropsy, or weight.\nAdult C57BL/6 mice (n=6 per group) were administered PS48 for 14 days. A low dose group received 1 mg/kg per day, while a high dose group received 50 mg/kg per day. A negative control group received corn oil. […] Body and organ specific weights were unaffected at necropsy. Fasting serum glucose at trial end was unchanged (˜150 mg/dl)."}, "C57BL/6 mice [4]": {"test_system": "C57BL/6 mice", "test": "Safety of intravenous PS48 over 2 weeks", "format": "in vivo, mouse", "experimental": "as §1\nFor intravenous PS48, adult male C57BL/6 mice (Charles River, n=6 per group) were fed ad libitum and dosed with PS48 or vehicle in an escalating schedule from 3-20 mg/kg IV daily; 3-10 mg/kg days 1-6, and 20 mg/kg days 7-13. Tail vein blood sugars were obtained 30, 60, and 120 minutes after every third dose.\nLiver transaminases ALT and AST, as well as muscle creatine kinase (CK), were also measured to assess possible liver toxicity and possible general tissue toxicity, respectively. A change in ALT, albeit statistically significant, was very small."}, "[5]": {"test_system": "Akt phosphorylation in Aβ42-expressing SH-SY5Y cells", "test": "Akt activation in Aβ42-expressing cells (adenovirus/doxycycline, insulin-stimulated)", "format": "cell-based", "experimental": "Adv TetOn and TRE-Aβ42 viruses were described previously (Magrane et al., 2005). […] Insulin (10 or 40 nM) was added in the last 20-30 min before harvest. […] Cell extracts were prepared in lysis buffer [20 mM Tris-HCl (pH 7.5), 150 mM NaCl, 1 mM EDTA, 1 mM Na3VO4, 1% NP-40, 10% Glycerol, 1 mM Na4P2O7, 1 μg/ml Leupeptin, 1 μg/ml Pepstatin A, 1 μg/ml Aprotinin, 0.1 mM phenylmethylsulfonyl fluoride, and protease inhibitor cocktail (Roche)] and were stored at −80° C. until use.\nWhole-cell extracts were used directly for western blot analysis (20˜30 μg). Extracts from cultured cells prepared in lysis buffer, were diluted into Laemmli sample buffer, heated (95° C., 10 min), cleared by centrifugation, separated on SDS-PAGE and transferred to PVDF membrane (Immobilon-P; Millipore). Membranes were blocked in TBS containing 0.3% Tween-20 and 5% (wt/vol) non-fat dry milk. After incubation with primary antibodies (18 hr at 4° C. in buffer containing 5% bovine serum albumin (BSA) and 0.05% NaN3), blots were washed and incubated in horseradish peroxidase (HRP)-conjugated secondary antibodies (1:2000 dilution; Cell Signaling). Signals were detected using ECL reagents and quantified using a Kodak Image Station 4000R.\n[…]. […] […]. […] […]."}, "cells": {"test_system": "cells", "conditions": "WST-1"}},
  "data": [
    {"smiles": "O=C(O)/C=C(/CCc1ccc(Cl)cc1)c1ccccc1", "note": "[PS48, (Z)-5-(4-chlorophenyl)-3-phenylpent-2-enoic acid]", "values": [
      {"measurement": "inhibition of Akt Ser473 phosphorylation by palmitate", "setting": "[1]", "result": "partly reversed inhibition of Akt Ser473 phosphorylation by palmitate"},
      {"measurement": "downstream mTOR substrate phosphorylation", "setting": "mTOR", "result": "unchanged"},
      {"measurement": "Akt Ser473 and mTOR Ser2448 phosphorylation", "setting": "[2]", "result": "did not over-activate Akt Ser473 or affect mTOR Ser2448 phosphorylation"},
      {"measurement": "effect of PS48 additions on polarization signal", "setting": "Akt-1", "result": "did not affect either polarization signal"},
      {"measurement": "cell viability, comparison with PPAR agonist (FIG. 2B)", "setting": "SH-SY5Y cells; PS48 10 μM, pioglitazone 5 μM", "result": "compared favorably"},
      {"measurement": "cell viability (MTT) of amyloid-bearing cells", "setting": "SH-SY5Y cells; pretreatment before doxycycline, PS48 10 μM or insulin 100 nM, harvested at 48 hrs", "result": "reverted cells to basal condition or better"},
      {"measurement": "response to glucose challenge (OGTT)", "setting": "APP/PS-1 transgenic mice", "result": "helped to normalize the glucose response"},
      {"measurement": "cytoprotection", "setting": "C2C12 myotubes", "result": "same cytoprotection"},
      {"measurement": "behavioral changes", "setting": "C57BL/6 mice [3]", "result": "No overt behavioral changes"},
      {"measurement": "body and organ specific weights at necropsy", "setting": "C57BL/6 mice [3]", "result": "unaffected"},
      {"measurement": "tolerability", "setting": "C57BL/6 mice [3]", "result": "well tolerated"},
      {"measurement": "fasting serum glucose at trial end", "setting": "C57BL/6 mice [3]; unchanged", "result": "~150", "unit": "mg/dL"},
      {"measurement": "behavioral changes", "setting": "C57BL/6 mice [4]; 3-20 mg/kg IV daily, 2-week trial", "result": "No behavioral changes"},
      {"measurement": "change in muscle creatine kinase (CK)", "setting": "C57BL/6 mice [4]; IV daily for 14 days", "result": "no significant change"},
      {"measurement": "change in ALT", "setting": "C57BL/6 mice [4]; IV daily for 14 days, statistically significant", "result": "very small"},
      {"measurement": "mean body weight or mean blood sugars", "setting": "C57BL/6 mice [4]; IV, 3-20 mg/kg daily", "result": "no significant change"},
      {"measurement": "gross necropsy", "setting": "C57BL/6 mice [4]; IV, after 14 days", "result": "no abnormalities"},
      {"measurement": "concentration at which the dose-dependent reversal became apparent", "setting": "[5]; SH-SY5Y and C2C12 myotube cell lines, p<0.01", "result": 100, "unit": "nM"},
      {"measurement": "reversal of Aβ42 inhibition of insulin-stimulated Akt phosphorylation", "setting": "[5]; SH-SY5Y and C2C12 myotube data combined, PS48 100 nM and 1 μM (and 10 μM)", "result": "significantly reversed the Aβ42 effect"},
      {"measurement": "Akt activation (pT308) in β-amyloid-expressing cells", "setting": "[5]; SH-SY5Y, PS48 1 μM or insulin 100 nM added 2 hrs before doxycycline, insulin 40 nM 20 min prior to harvest", "result": "restored basal Akt activation levels"},
      {"measurement": "basal Akt, compound alone", "setting": "[5]; SH-SY5Y, PS48 1 μM, no Aβ42 induction", "result": "did not over-stimulate"},
      {"measurement": "Akt activity: phosphorylation of GSK3α/β consensus peptide by immunoprecipitated Akt (in vivo-in vitro coupled assay)", "setting": "[5]; SH-SY5Y, PS48 pre-treatment 50 nM, 2 hrs before doxycycline", "result": "prevented the inhibition of peptide phosphorylation by Aβ42"},
      {"measurement": "LD50", "setting": "cells", "result": 250, "unit": "µM"}
    ]}
  ]
}
